Results: patent publication US7824914B2, “Flavonoids-rich tissues from Neomarica gracilis and methods for culturing the same” (Tatung Company, priority 2006, dated 2010)
“And” between values parts separate entries of the source, which are not always exact repeats. Equal entries are not always repeated.

What was measured:
Type in all cases: cell-based, Neomarica gracilis
[1] = system: N. gracilis rhizome tissue; assay: Effect of ancymidol on sprout formation and tectorigenin content of cultured rhizome tissue
Description: (§1) (4) To determine ancymidol's effect on sprout formation and tectorigenin content, liquid cultured N. gracilis rhizome tissue was inoculated at an inoculum weight of 3% (g F.W./100 ml) to a subculture medium containing MS, 0.5 mg/L BA, 0.1 mg/L 2,4-D and 0.84 mg/L NAA. At day 7 and 14 of the culture, sterilely filtered (0.2 um) ancymidol was added to the culture medium to a final concentration of 0.5, 1.0, or 2.0 mg/L. The growth of the tissue was monitored and the tectorigenin content analyzed.
(§2) The tectorigenin content of the tissue extract was determined by HPLC analysis using a Cosmosil 5 C18-AR-II column (5 μm, 4.6×250 mm), a Lichrospher® 100 RP-18e Guard column (45×4.6 mm, 5 μm, Merck), a Degasser (ERC-3415α) Pump, a Waters 600E Autosampler and Injector (Schambeck SGD GmbH S5200), a Waters TM 486 UV/VIS Detector, and an Integrator (SISC Xunhua Ltd.). The analysis was performed using a methanol:H2O (0.1% Acetic acid) ratio of 55:45, a flowrate of 0.8 ml/min, and a detection wavelength of 265 nm. The tectorigenin peak of the standard appeared at about 13 min appear.
as §1, with “Liquid” for “(4) To determine ancymidol's effect on sprout formation and tectorigenin content, liquid”

[2] = system: N. gracilis rhizome tissue; assay: Effect of plant growth regulators on N. gracilis rhizome tissue growth and tectorigenin content in flask culture
Description: (2) To determine the effect of plant growth regulators (PGR), sprouts from liquid cultured N. gracilis rhizome tissue were removed with a scalpel. The rhizome tissue was inoculated at an inoculum weight of 3% (g F.W./50 ml) in culture medium containing MS basic medium supplemented with PGRs as shown in Table 2. The culture medium was changed every two weeks. The cultured tissue was weighted at each medium change for a total of eight weeks.
N. gracilis rhizome tissue was frozen at −80° C. for 10 hours, dried in a refrigerated vacuum drier (VirTis Freezemobile 12XL) overnight, and grinded. 0.5 g of dried and grinded tissue was suspended in adequate amount of methanol in a 10 ml flask, […] incubated at 60° C. with ultrasonic vibration for 1 hour, and cooled. Methanol was then added to the suspension to a final volume of 10 ml. The suspension was filtered with Whatman No. 1 filter paper. The filtered solution was sealed in brown sample vials and placed in cold room for future experiments.
as §2
N. gracilis rhizome tissue was inoculated at an inoculum weight of 3% (g F.W./[…]) in culture medium containing MS supplemented with various amount of PGRs (Table 2). The culture medium was changed and the fresh weight of the tissues was measured every two weeks. Significant increases in fresh weight were observed during 6-8 weeks of culture (FIG. 3).

[3] = system: N. gracilis rhizome tissue; assay: Effect of inoculum weight and PGRs on tissue growth in TIS culture; settings: 1 mg/L kinetin, inoculum weight 1.5 g, 30 days
Description: (1) To determine the effect of the inoculation weight on tissue growth, the TIS culture chamber was divided into four areas. Liquid cultured N. gracilis rhizome tissue was inoculated at 1.5, 3, 6 and 9 g in each area. The culture medium was an MS medium supplemented with PGR as described in samples T12, T17 and T18 of Table 3. The tissues were cultured under conditions detailed in the Plantima® user's manual and immersed for two minutes every three hours. The cultured tissue was weighted and the medium replaced every ten days.
The TIS culture chamber was divided into four areas and liquid cultured N. gracilis rhizome tissue was inoculated at an inoculum weight of 1.5, 3, 6 and 9 g in each area. The culture medium was MS medium supplemented with PGR as described in samples TI2, TI7 and TI8 of Table 3. The cultured tissue was weighted every ten days. […] All other inoculum weights/PGR combinations led to slower growth (FIG. 7).

[4] = system: N. gracilis rhizome tissue; assay: Effect of PGRs on growth and tectorigenin content in TIS culture; settings: for Growth rate: (Final F.W. − Initial F.W.)/Initial F.W.; for F.W. / Tectorigenin: week 4
Description: (2) To determine the effect of PLRs on the grows of N. gracilis and the tectorigenin content influence, ten pieces of liquid cultured N. gracilis rhizome tissue were inoculated in culture media containing MS and PGRs described in samples MS0, TI3, TI4, TI5 and TI6 of Table 3. The culture media were replaced on week 2 and the tissues were harvested on week 4 and analyzed for tectorigenin content.
as §2
To determine the effect of PGRs on the tectorigenin content, ten pieces of liquid cultured N. gracilis rhizome tissue (1.5 g each) were inoculated in culture media containing MS and PGRs described in samples MS0, TI3, TI4, TI5 and TI6 of Table 3. The tissues were harvested on week 4 and analyzed for tectorigenin content.

[5] = system: N. gracilis rhizome tissue; assay: Tectorigenin content during growth of rhizome tissue in flask culture (weekly for 8 weeks); settings: 0.1 mg/L NAA, week 1, flask culture
Description: (3) To determining the growth curve of N. gracilis rhizome tissue and the tectorigenin content, sprouts from liquid cultured N. gracilis rhizome tissues were removed with a scalpel. The rhizome tissue was inoculated at an inoculum weight (g F.W./50 ml) in culture medium containing the MS basic medium supplemented with 0.1 mg/L NAA or a mixture of 1 mg/L NAA and 1.0 mg/L 2,4-D. The tissues were weighted and analyzed for tectorigenin content every week for eight consecutive weeks.
as §2
Rhizome tissue was inoculated at an inoculum weight of 3% (g F.W./50 ml) in culture medium containing MS basic medium supplemented with 0.1 mg/L NAA or a mixture of 1 mg/L NAA and 1.0 mg/l 2,4-D. The tissues were weighted and analyzed for tectorigenin content every week for eight consecutive weeks.

[6] = 2,4-D 0.1 mg/l, NAA 0, 8 weeks flask culture
[7] = 2,4-D 1.0 mg/l, NAA 0, 8 weeks flask culture
[8] = NAA 0.1 mg/l, 2,4-D 0, 8 weeks flask culture
[9] = NAA 0.5 mg/l, 2,4-D 0, 8 weeks flask culture
[10] = NAA 1.0 mg/l, 2,4-D 0, 8 weeks flask culture
[11] = NAA 2.0 mg/l, 2,4-D 0, 8 weeks flask culture
[12] = IAA 0.1 mg/L, Kinetin 0, 8 weeks flask culture
[13] = IAA 0.5 mg/L, Kinetin 0, 8 weeks flask culture
[14] = IAA 1 mg/L, Kinetin 0, 8 weeks flask culture

## COc1ccc(C(O)(c2cncnc2)C2CC2)cc1 (stereo not shown) [Ancymidol, ancymidol]
[1]; 0.5 or 2.0 mg/L added on day 14
  effect on tectorigenin content (in words): reduced tectorigenin content
[1]; Ancymidol 0.5 mg/L added day 7, 3 weeks of culture
  Tectorigenin: 28.31 ± 0.11 b mg/kg D.W.
[1]; Ancymidol 0.5 mg/L added day 14, 3 weeks of culture
  Tectorigenin: 18.59 ± 0.07 c mg/kg D.W.
[1]; Ancymidol 1.0 mg/L added day 7, 3 weeks of culture
  Tectorigenin: 27.74 ± 0.08 b mg/kg D.W.
[1]; Ancymidol 1.0 mg/L added day 14, 3 weeks of culture
  Tectorigenin: 30.81 ± 0.35 a mg/kg D.W.
[1]; Ancymidol 2.0 mg/L added day 7, 3 weeks of culture
  Tectorigenin: 35.65 ± 0.18 a mg/kg D.W.
[1]; Ancymidol 2.0 mg/L added day 14, 3 weeks of culture
  Tectorigenin: 13.36 ± 0.13 d mg/kg D.W.
[1]; added on day 7
  effect on tectorigenin content (in words): did not affect the tectorigenin content
  sprout formation (morphology): significant reduction of sprout formation

## O=C(O)COc1ccc(Cl)cc1Cl [2,4-D, 2,4-dichlorophenoxyacetic acid]
[2]; [6]
  Dry weight: 0.92 ± 0.15 bc g
  Tectorigenin: 38.9 ± 1.17 cd mg/kg D.W.
[2]; [7]
  Dry weight: 1.17 ± 0.21 ab g
  Tectorigenin: 36.7 ± 0.33 cd mg/kg D.W.

## c1coc(CNc2ncnc3[nH]cnc23)c1 [Kinetin, kinetin]
[2]; flask culture, 8 weeks
  change of tectorigenin content (in words): did not result in any increase in the tectorigenin content
[3]
  fresh weight: 6.76 ± 0.33 g
  fresh weight as fold of the inoculum weight: 4.5 fold
[4]; Kinetin 1.0 mg/l
  Growth rate: 2.07 ± 0.15
  F.W.: 46.12 ± 2.18 g
  Tectorigenin: 10 ± 0.15 mg/kg D.W.

## O=C(O)Cc1cccc2ccccc12 [NAA, α-naphthaleneacetic acid]
[5]
  tectorigenin content (highest, during week 1): 56±2.82 mg/kg D.W.
[2]; [8]
  Dry weight: 1.39 ± 0.32 a g
  Tectorigenin: 55.5±0.67 mg/kg D.W. and 55.5 ± 0.67 ab mg/kg D.W.
[2]; [9]
  Dry weight: 1.03 ± 0.31 bc g
  Tectorigenin: 59.9±0.23 mg/kg D.W. and 58.9±0.23 mg/kg D.W. and 58.9 ± 0.23 ab mg/kg D.W.
[2]; [10]
  Dry weight: 1.05 ± 0.20 bc g
  Tectorigenin: 49.0 ± 0.81 bc mg/kg D.W.
[2]; [11]
  Dry weight: 0.75 ± 0.02 cd g
  Tectorigenin: 9.4 ± 0.22 e mg/kg D.W.
[4]; NAA 0.1 mg/l
  Growth rate: 1.71 ± 0.14
  F.W.: 40.65 ± 2.09 g
  Tectorigenin: 38 ± 0.57 mg/kg D.W.
[4]; NAA 0.5 mg/l
  Growth rate: 1.10 ± 0.21
  F.W.: 31.47 ± 3.12 g
  Tectorigenin: 33 ± 0.38 mg/kg D.W.

## O=C(O)Cc1c[nH]c2ccccc12 [IAA, indole-3-acetic acid]
[2]; [12]
  Dry weight: 1.26 ± 0.22 b g
  Tectorigenin: 11.8 ± 8.4 b mg/kg D.W.
[2]; [13]
  Dry weight: 1.02 ± 0.11 bc g
  Tectorigenin: 37.6±4.9 mg/kg D.W. and 37.6 ± 4.9 a mg/kg D.W.
[2]; [14]
  Dry weight: 1.70 ± 0.08 a g
  Tectorigenin: 29.0 ± 0.29 c mg/kg D.W.
